From patent publication US12612412B2, “Antiviral heterocyclic compounds” (Enanta Pharmaceuticals, Inc., priority 2021, dated 2026) come the findings set out here.

The test system of test [1] is genotype A, "Long" strain RSV. The experiment in a line: RSV-A assay (CPE protection in Hep-2 cells, ATPlite readout). The test is classed as cell-based, Human respiratory syncytial virus (HRSV). Particulars: genotype A “Long” strain RSV, MOI 0.1, CPE protection, read-out: Human RSV-A (“Long”). In short, it runs like this: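 ATPlite luminescence (cellular ATP) served as the measure of cell health after 5 days of infection. Hep-2 cells at 8,000 per well received duplicate 2-fold compound dilutions plus virus at MOI 0.1, and EC50 was calculated from CPE protection.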
A general note: ATP-based viability assays read luminescence as a measure of living cells.

Test [2] relates to recombinant HMPV CAN97-83 containing eGFP (MPV-GFP1). The experiment in a line: HMPV antiviral assay Method-A (MPV-GFP1 eGFP fluorescence in Vero E6 cells). The test is classed as cell-based, Human metapneumovirus (HMPV). In short, it runs like this: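 Vero E6 cells in serum-free OptiMEM with 0.5 μg/mL TPCK-trypsin were infected with eGFP-expressing HMPV CAN97-83 at MOI 0.05, with 8-point twofold dilutions from 8 or 2 μM (0.5% DMSO). After 5 days at 32° C, eGFP fluorescence gave % inhibition versus infected untreated wells. EC50 came from four-parameter logistic fits.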

Where [3] appears, read: human respiratory syncytial virus.
The mark [4] stands for this setting: human metapneumovirus, Vero C1008, 120 h, read-out: HMPV EC50.

Read-outs that look alike come from different tables or passages of the source.

Consider `C[C@H](N)C(=O)Nc1nc2ccc(C(=O)NC[C@](O)(c3cc4c(c(-c5ccc(F)cc5)n3)OC[C@]4(C)C(N)=O)C(F)(F)F)cc2s1` [Example 153], for which the EC50 in test [1] (setting [3]) was under 200 nM; in test [2] (setting [4]), over 500 nM.
Regarding `C[C@]1(C(N)=O)COc2c1cc([C@@](O)(CNC(=O)c1cc(F)c3nc(N)sc3c1)C(F)(F)F)nc2-c1ccc(F)c(Cl)c1` [Example 12], the EC50 was under 200 nM in test [1] (setting [3]) and under 500 nM in test [2] (setting [4]).
With `Cc1cnc2c(Cl)cc(C(=O)NC[C@](O)(c3cc4c(c(-c5ccc(F)cc5)n3)OC[C@]4(C)C(N)=O)C(F)(F)F)cc2c1` [Example 70], the EC50 in test [1] (setting [3]) is under 200 nM; in test [2] (setting [4]) it was under 500 nM.
With `C[C@]1(C(N)=O)COc2c1cc([C@@](O)(CNC(=O)c1cc(F)c3nc(N)sc3c1)C(F)(F)F)nc2-c1ccc(Cl)cc1` [Example 307], the figures for the EC50 in test [1] (setting [3]) and in test [2] (setting [4]) were under 200 nM and under 500 nM, respectively.
Turning to `C[C@]1(C(N)=O)COc2c1cc([C@@](O)(CNC(=O)c1ccc3nc(NCCN)sc3c1)C(F)(F)F)nc2-c1ccc(F)cc1` [Example 165], the EC50 in test [1] (setting [3]) is under 200 nM; in test [2] (setting [4]), over 500 nM.
For the compound `C[C@]1(C(N)=O)COc2c1cc([C@@](O)(CNC(=O)c1cc(Cl)c3[nH]ccc3c1)C(F)(F)F)nc2-c1ccc(F)cc1` [Example 199], the values for the EC50 in test [1] (setting [3]) and in test [2] (setting [4]) were under 200 nM and over 500 nM, respectively.
In the case of `CC(C)[C@@H](N)C(=O)Nc1nc2ccc(C(=O)NC[C@](O)(c3cc4c(c(-c5ccc(F)cc5)n3)OC[C@]4(C)C(N)=O)C(F)(F)F)cc2s1` [Example 156], the EC50 in test [1] (setting [3]) is under 200 nM; in test [2] (setting [4]), over 500 nM.
With `C[C@@H](N)C(=O)Nc1nc2ccc(C(=O)NC[C@](O)(c3cc4c(c(-c5ccc(F)cc5)n3)OC[C@]4(C)C(N)=O)C(F)(F)F)cc2s1` [Example 158], the EC50 was under 200 nM in test [1] and over 500 nM in test [2] (read-out: HMPV EC50; Method-A, MPV-GFP1 in Vero E6 cells, eGFP fluorescence after 5 days).
Regarding `C[C@]1(C(N)=O)COc2c1cc([C@@](O)(CNC(=O)c1ccc3nc(C(F)(F)F)cn3c1)C(F)(F)F)nc2-c1ccc(F)cc1` [Example 54], the EC50 in test [1] (setting [3]) is under 200 nM; in test [2] (setting [4]) it was over 500 nM.
`Cc1cn2cc(C(=O)NC[C@](O)(c3cc4c(c(-c5ccc(F)cc5)n3)OC[C@]4(C)C(N)=O)C(F)(F)F)ccc2n1` [Example 50]: the EC50 is under 200 nM in test [1] (setting [3]) and over 500 nM in test [2] (setting [4]).
As to `C[C@]1(C(N)=O)COc2c1cc([C@@](O)(CNC(=O)c1cc(C(F)(F)F)c3[nH]ncc3c1)C(F)(F)F)nc2-c1ccc(F)cc1` [Example 105], the EC50 was under 200 nM in test [1] (setting [3]) and over 500 nM in test [2] (setting [4]).
As to `NC(=O)[C@@]1(C2CC2)COc2c1cc([C@@](O)(CNC(=O)c1cc(OC3CC3)c3ncccc3c1)C(F)(F)F)nc2-c1ccc(F)cc1` [Example 270], the EC50 was under 200 nM in test [1] (setting [3]) and under 500 nM in test [2] (setting [4]).
As to `C[C@]1(C(N)=O)COc2c1cc([C@@](O)(CNC(=O)c1cc(OC3CC3)n3nc(C4CC4)cc3c1)C(F)(F)F)nc2-c1ccc(F)cc1` [Example 321], the EC50 was under 200 nM in test [1] (setting [3]) and under 500 nM in test [2] (setting [4]).
On to `COc1cc(C(=O)NC[C@](O)(c2cc3c(c(-c4ccc(F)cc4)n2)OC[C@]3(C)C(N)=O)C(F)(F)F)cc2cc(C3CC3)c(C)nc12` [Example 78], for which the EC50 in test [1] (setting [3]) is under 200 nM; in test [2] (setting [4]), over 500 nM.
The like results for `C[C@]1(C(N)=O)COc2c1cc([C@@](O)(CNC(=O)c1cc(Cl)c3nc(N)oc3c1)C(F)(F)F)nc2-c1ccc(F)cc1` [Example 91] were, in that order, under 200 nM and over 500 nM.
As to `Cc1nc2c(Cl)cc(C(=O)NC[C@](O)(c3cc4c(c(-c5ccc(F)cc5)n3)OC[C@]4(C)C(N)=O)C(F)(F)F)cc2s1` [Example 77], the figures for the EC50 in test [1] (setting [3]) and in test [2] (setting [4]) were under 200 nM and under 500 nM, respectively.
`COc1cc(C(=O)NC[C@](O)(c2cc3c(c(-c4ccc(F)cc4)n2)OC[C@]3(C)C(N)=O)C(F)(F)F)cc2cc(C3CCC3)nn12` [Example 322]: the EC50 in test [1] (setting [3]) was under 200 nM; in test [2] (setting [4]) it was over 500 nM.
The like results for `COc1cc(C(=O)NC[C@](O)(c2cc3c(c(-c4ccc(F)cc4)n2)OC[C@]3(C)C(N)=O)C(F)(F)F)cc2cc(C)c(CO)nc12` [Example 4] were, in that order, under 200 nM and under 500 nM.
For the compound `C[C@]1(C(N)=O)COc2c1cc([C@@](O)(CNC(=O)c1ccc3nnc(C4CC4)cc3c1)C(F)(F)F)nc2-c1ccc(F)cc1` [Example 7], the EC50 in test [1] (setting [3]) was under 200 nM; in test [2] (setting [4]), under 500 nM.
In the case of `Cc1cnc2c(NC(=O)N3CCC3)cc(C(=O)NC[C@](O)(c3cc4c(c(-c5ccc(F)cc5)n3)OC[C@]4(C)C(N)=O)C(F)(F)F)cc2c1` [Example 221], the EC50 was under 200 nM in test [1] (setting [3]) and over 500 nM in test [2] (setting [4]).
The like results for `C[C@]1(C(N)=O)COc2c1cc([C@@](O)(CNC(=O)c1cc(OC3CC3)c3nn(C4CC4)cc3c1)C(F)(F)F)nc2-c1ccc(F)cc1` [Example 26] were, in that order, under 200 nM and under 500 nM.
On to `C[C@]1(C(N)=O)COc2c1cc([C@@](O)(CNC(=O)c1cc(C3CC3)c3nn(C(F)F)cc3c1)C(F)(F)F)nc2-c1ccc(F)cc1` [Example 47], for which the EC50 was under 200 nM in test [1] (setting [3]) and under 500 nM in test [2] (setting [4]).
As for `CC1(C(N)=O)COc2c1cc(C(O)(CNC(=O)c1cc(OCC(F)F)n3nc(C4CC4)cc3c1)C(F)(F)F)nc2-c1ccc(F)cc1` (centres unmarked) [Example 68], the EC50 was under 200 nM in test [1] and under 500 nM in test [2] (Method-A, MPV-GFP1 in Vero E6 cells, eGFP fluorescence after 5 days; read-out: HMPV EC50).
For `Cc1ccc2cc(C(=O)NC[C@](O)(c3cc4c(c(-c5ccc(F)cc5)n3)OC[C@]4(C)C(N)=O)C(F)(F)F)cc(OC(F)F)c2n1` [Example 327], the EC50 is under 200 nM in test [1] (setting [3]) and over 500 nM in test [2] (setting [4]).
`Cc1cc2cc(C(=O)NC[C@](O)(c3cc4c(c(-c5ccc(F)c(Cl)c5)n3)OC[C@]4(C)C(N)=O)C(F)(F)F)cc(Cl)c2nc1C` [Example 182]: the results for the EC50 in test [1] (setting [3]) and in test [2] (setting [4]) were under 200 nM and under 500 nM, respectively.
In the case of `COc1cc(C(=O)NC[C@](O)(c2cc3c(c(-c4ccc(F)cc4)n2)OC[C@]3(C)C(N)=O)C(F)(F)F)cc2cc(Cl)c(C)nc12` [Example 82], the EC50 in test [1] (setting [3]) is under 200 nM; in test [2] (setting [4]), under 500 nM.
Taken in the same sequence, the figures for `COc1cc(C(=O)NC[C@](O)(c2cc3c(c(-c4ccc(F)cc4)n2)OC[C@]3(CO)C(N)=O)C(F)(F)F)cc2cc(C)c(C)nc12` [Example 167] were under 200 nM and over 500 nM.
In the case of `Cc1cnc2c(NC(N)=O)cc(C(=O)NC[C@](O)(c3cc4c(c(-c5ccc(F)cc5)n3)OC[C@]4(C)C(N)=O)C(F)(F)F)cc2c1` [Example 223], the EC50 in test [1] (setting [3]) was under 200 nM; in test [2] (setting [4]) it was over 500 nM.
On to `COc1ccc(C(=O)NC[C@](O)(c2cc3c(c(-c4ccc(F)cc4)n2)OC[C@]3(C)C(N)=O)C(F)(F)F)cc1Nc1nccnn1` [Example 112], for which the EC50 was under 200 nM in test [1] (setting [3]) and over 500 nM in test [2] (setting [4]).
For `C[C@]1(C(N)=O)COc2c1cc([C@@](O)(CNC(=O)c1cc(F)c3nc(N)sc3c1)C(F)(F)F)nc2-c1ccc(C#N)cc1` [Example 309], the figures for the EC50 in test [1] (setting [3]) and in test [2] (setting [4]) were under 200 nM and over 500 nM, respectively.
For `COc1cc(C(=O)NC[C@](O)(c2cc3c(c(-c4ccc(F)cc4)n2)OC[C@@]3(C(N)=O)C2CC2)C(F)(F)F)cc2cn(C3CC3)nc12` [Example 280], the EC50 is under 200 nM in test [1] (setting [3]) and under 500 nM in test [2] (setting [4]).
As for `C[C@H](COc1ccc(C(=O)NC[C@](O)(c2cc3c(c(-c4ccc(F)cc4)n2)OC[C@]3(C)C(N)=O)C(F)(F)F)cc1OC1CC1)OP(=O)(O)O` [Example 3], the EC50 is under 200 nM in test [1] (setting [3]) and over 500 nM in test [2] (setting [4]).
Taken in the same sequence, the figures for `C[C@]1(C(N)=O)COc2c1cc([C@@](O)(CNC(=O)c1cc(Cl)c3nn(C(F)F)cc3c1)C(F)(F)F)nc2-c1ccc(F)c(Cl)c1` [Example 44] were under 200 nM and under 500 nM.
With `COc1cc(C(=O)NC[C@](O)(c2cc3c(c(-c4ccc(F)cc4)n2)OC[C@]3(C)C(N)=O)C(F)(F)F)cc2cc[nH]c12` [Example 200], the EC50 is under 200 nM in test [1] (setting [3]) and over 500 nM in test [2] (setting [4]).
The like results for `C[C@]1(C(N)=O)COc2c1cc([C@@](O)(CNC(=O)c1cc(F)c3nn(C4CC4)cc3c1)C(F)(F)F)nc2-c1ccc(F)c(Cl)c1` [Example 29] were, in that order, under 200 nM and under 500 nM.
Turning to `COc1cc(C(=O)NC[C@](O)(c2cc3c(c(-c4ccc(F)cc4)n2)OC[C@@]3(C(N)=O)C2CC2)C(F)(F)F)cc2cc(C(F)(F)F)cnc12` [Example 265], the EC50 was under 200 nM in test [1] (setting [3]) and under 500 nM in test [2] (setting [4]).
As to `COc1ccc(Nc2cc(C(=O)NC[C@](O)(c3cc4c(c(-c5ccc(F)cc5)n3)OC[C@]4(C)C(N)=O)C(F)(F)F)cc3cc(C)cnc23)nn1` [Example 121], the EC50 in test [1] (setting [3]) is under 200 nM; in test [2] (setting [4]), under 500 nM.
The like results for `COc1cc(C(=O)NC[C@](O)(c2cc3c(c(-c4ccc(F)cc4)n2)OC[C@]3(C)C(N)=O)C(F)(F)F)cn2cc(C(F)F)nc12` [Example 64] were, in that order, under 200 nM and over 500 nM.
On to `C[C@]1(C(N)=O)COc2c1cc([C@@](O)(CNC(=O)c1cc(Cl)c3[nH]c(C4CC4)nc3c1)C(F)(F)F)nc2-c1ccc(F)cc1` [Example 94], for which the results for the EC50 in test [1] (setting [3]) and in test [2] (setting [4]) were under 200 nM and over 500 nM, respectively.
On to `C[C@]1(C(N)=O)COc2c1cc([C@@](O)(CNC(=O)c1ccc3nc(NC(=O)[C@@H]4CCCN4)sc3c1)C(F)(F)F)nc2-c1ccc(F)cc1` [Example 160], for which the results for the EC50 in test [1] (setting [3]) and in test [2] (setting [4]) were under 200 nM and over 500 nM, respectively.
